A short description of data set [1]: Molar enthalpy of transition or fusion. The conditions noted are these: Crystal; DSC.
The conditions of data set [2]: Crystal; DTA.

± gives the expanded uncertainty stated by the source.

`CCOc1ccccc1C(N)=O` [Ethenzamide]: in data set [1], the “Molar enthalpy of transition or fusion” value was determined as 20.4 ± 0.93 kJ/mol. Besides, the Normal melting temperature in data set [2] amounted to 138.33 ± 0.39 °C.
